Data from article PMC4912613, “A broad analysis of resistance development in the malaria parasite” (Nature Communications, 2016).

Experiments:
[1] = test system: NITD609-R2 (PfATP4 T418N and P990R, parent Dd2); test: Cross-resistance EC50 assay, NITD609-R2; type: cell-based; conditions: Plasmodium falciparum, SYBR green 72 hour assay, asynchronized parasites, 96-well or 1536-well format
Excerpt: (§1) To evaluate potential overlapping activity against known antimalarial drug targets, we performed dose-response studies with each compound against our assembled set of drug-resistant lines and their corresponding parents, in an asexual blood stage proliferation assay (Table 1). Comparisons were made to the drug-sensitive strain 3D7 when a parent was unavailable (TM90C2A, W2 and Dd2). As laboratories conducted EC50 assays with different strains and protocols, all comparisons were made between assays from the same laboratory and under the same assay conditions. Compounds displaying >5-fold EC50 shifts relative to the parent or sensitive strain were flagged as having potentially non-novel targets. Average fold shifts per strain ranged from 0.82 to 2.34, with a median of 1.23 indicating there was not common resistance to any one resistant clone. No resistance patterns were observed when classifying the compounds based on chemical structure, but this was not surprising given the diversity of compounds chosen. On the other hand, given that these confirmed compounds were derived from larger unconfirmed hit lists to which some filtration criteria may have been applied (for example, elimination of obvious dihydrofolate reductase inhibitors[32]), some[10][11][12][13] pre-existing bias may exist in the set. […]
(§2) Alternatively, a SYBR Green-based proliferation approach was used for the 72-h assay, as previously described. Briefly, a culture of either synchronized or asynchronous parasitized RBCs (0.3% parasitemia and 4% haematocrit) in screening medium (identical to supplemented medium above except no serum was added) was exposed to serial drug dilutions. Plates were incubated at 37 °C and gassed with 93% N2, 4% CO2 and 3% O2 for 72 h. Following incubation, 10 × SYBR Green I (Invitrogen; supplied in 10,000 × concentration) in lysis buffer ([…], 5 mM EDTA, 0.16% Saponin wt per vol and 1.6% Triton X vol per vol) was added to the wells and the plates were incubated overnight at room temperature before plate reading. EC50 assays were repeated three times, taking the average EC50 value from each assay set, and removing any outliers using a single iteration of Grubbs' test, eliminating values with z-scores above the critical z-value (α=0.05). The raw EC50 values for synchronized parasites assayed in a 384-well format are listed in Supplementary Data 4. The raw EC50 values for asynchronous parasites assayed in a 96 or 1536-well format are listed in Supplementary Data 5.
(§3) EC50 values for each strain were compared with those of the corresponding parent strain to determine fold-shift changes and identify resistance. To minimize the cause variance between assays, all comparisons were conducted between strains assayed under identical conditions. A one-way ANOVA followed by a Dunnet's post-test was conducted in GraphPad Prism to identify significant changes between the parent and resistant strain.

[2] = test system: GNF449-R2 (PfATP4 I203L and P990R, parent Dd2); test: Cross-resistance EC50 assay, GNF449-R2; type: cell-based; conditions: Plasmodium falciparum, SYBR green 72 hour assay, asynchronized parasites, 96-well or 1536-well format
Excerpt: as §1, §2, §3

[3] = test system: W2; test: Cross-resistance EC50 assay, W2 parent; type: cell-based, Plasmodium falciparum; conditions: Plasmodium falciparum, 48 h, read-out: W2F6 (PARENT) Average EC50
Excerpt: Multidrug resistance alleles, including mutations in P. falciparum chloroquine resistance transporter (pfcrt) and P. falciparum multi-drug resistance transporter 1 (pfmdr1) are very common in field isolates. Therefore, we sought to assess the degree to which pre-existing resistance alleles would contribute to a loss of potency for this diverse collection of small molecule compounds. Fifteen clones derived from three main parent lines were chosen to maximize diversity in mutated pathways and genetic backgrounds, thus representing the variety of resistance seen in the field: 3D7 (ref. [23]), W2 (ref. [24]) or Dd2 (ref. [25]). The 3D7 line originates from the clone of a Netherlands clinical isolate strain[23][26] and is generally considered to be drug sensitive, though it does convey resistance to sulfadoxine. Conversely, W2 (ref. [24], [27]) and Dd2 (ref. [25]) are multi-drug-resistant lines originating from the Indochina III/CDC isolate, which contain point mutations in pfcrt as well as amplifications in pfmdr1 and GTP cyclohydrolase.
To evaluate potential overlapping activity against known antimalarial drug targets, we performed dose-response studies with each compound against our assembled set of drug-resistant lines and their corresponding parents, in an asexual blood stage proliferation assay (Table 1). Comparisons were made to the drug-sensitive strain 3D7 when a parent was unavailable (TM90C2A, W2 and Dd2). As laboratories conducted EC50 assays with different strains and protocols, all comparisons were made between assays from the same laboratory and under the same assay conditions. Compounds displaying >5-fold EC50 shifts relative to the parent or sensitive strain were flagged as having potentially non-novel targets. Average fold shifts per strain ranged from 0.82 to 2.34, with a median of 1.23 indicating there was not common resistance to any one resistant clone. No resistance patterns were observed when classifying the compounds based on chemical structure, but this was not surprising given the diversity of compounds chosen. On the other hand, given that these confirmed compounds were derived from larger unconfirmed hit lists to which some filtration criteria may have been applied (for example, elimination of obvious dihydrofolate reductase inhibitors[32]), some[10][11][12][13] pre-existing bias may exist in the set.
The 48-h assay was carried out in a 96-well format following standard methods using the ^3H-hypoxanthine incorporation assay. The raw EC50 values corresponding to this assay can be found in Supplementary Data 3. Briefly, this assay relies on the parasite incorporation of labelled hypoxanthine that is proportional to P. falciparum growth. A culture of parasitized RBCs (0.5% parasitemia with a percentage of ring stage higher than 70% of total parasitemia, 2.0% haematocrit) in RPMI-1640, […] and 5 μM hypoxanthine was exposed to drug serial dilutions. Plates were incubated for 24 h at 37 °C, 5% CO2, 5% O2 and 90% N2. After 24 h of incubation, ^3H-hypoxanthine was added and plates were incubated for an additional 24-h period. After that, parasites were harvested on a glass fibre filter using a TOMTEC Cell Harvester 96. Filters were dried and melt-on scintillator sheets were used to determine the incorporation of ^3H-hypoxanthine. Radioactivity was measured using a microbeta counter. Data were normalized using the incorporation of the positive (parasitized RBCs without drug) and negative (same culture with artesunate at 2 μM) controls. All assays were conducted in triplicate using three independently grown cultures, and EC50 values were determined using the XLfit add-in module for Excel (version 2.3.1) from Grafit (version 5.3.1.3), where parameter h is the assay hill slope, x is the compound concentration and y is the inhibition of growth effect. The XLfit equation is: […]
Alternatively, a SYBR Green-based proliferation approach was used for the 72-h assay, as previously described. […]

[4] = test system: GNF156R (PfCARL L830V, S1076I and M81I, parent Dd2); test: Cross-resistance EC50 assay, GNF156R; type: cell-based; conditions: Plasmodium falciparum, SYBR green 72 hour assay, asynchronized parasites, 96-well or 1536-well format
Excerpt: as §1, §2, §3

[5] = test system: ATQ-R4 (cytb M133I and L144S, parent 3D7); test: Cross-resistance EC50 assay, ATQ-R4; type: cell-based, Plasmodium falciparum; conditions: Plasmodium falciparum, 3D7; SYBR green 72 hour assay; asynchronized parasites; 96-well or 1536-well format; ATQ-R4
Excerpt: as §1, §2, §3

Row | SMILES | EC50 [1] [µM] | EC50 [2] [µM] | EC50 [3] [nM] | EC50 [4] [µM] | EC50 [5] [µM]
1 | CCN(CC)CCn1c(=N)n(CC(O)c2ccc(Cl)c(Cl)c2)c2ccccc21.Cl (centres unmarked) [MMV000248] | 0.252 | 0.497 | 605 | 0.432 | 0.177
2 | Cc1cc(Nc2ccc(OCc3ccccc3)cc2)nc2cc(O)ccc12 [MMV007181] | 0.128 | 0.153 | 34 | 0.163 | 0.109
3 | CN(C)Cc1ccc(-c2cc3c(-c4ccc(CN(C)C)cc4)ccnc3[nH]2)cc1.O=C(O)C(F)(F)F [MMV022224] | 0.406 | 0.518 | 406 | 0.429 | 0.372
4 | CN1CCN(c2ccc(Nc3c4ccccc4nc4ccccc34)cc2)CC1 [MMV006172] | 0.242 | 0.31 | 227 | 0.32 | 0.217
5 | Nc1ccc(-c2nc3cc(Cc4ccc5[nH]c(-c6ccc(N)cc6)nc5c4)ccc3[nH]2)cc1 [MMV665943] | 0.334 | 0.588 | 191 | 0.399 | 0.045
6 | c1cc(-c2cnc3ccc(-c4ccc(N5CCOCC5)cc4)nn23)ccn1 [MMV668311] | 0.016 | 0.03 | 29 | 0.031 | 0.029
7 | OC(CNC1CCCCC1)Cn1c2ccccc2c2ccccc21 (centres unmarked) [MMV009063] | 0.411 | 0.457 | 126 | 0.095 | 0.668
8 | O=C(Nc1ccc(Cl)c(Cl)c1)Nc1ccc(Cl)c(Cl)c1 [MMV665852] | 1.75 | 1.95 | 1590 | 0.75 | 2.89
9 | Nc1ccc(-c2nc3cc(Oc4ccc(Oc5ccc6[nH]c(-c7ccc(N)cc7)nc6c5)cc4)ccc3[nH]2)cc1 [MMV011895] | 0.56 | 0.644 | 279 | 0.126 | 0.545
10 | COc1ccc(NC(=O)N2CCCCN3[C@H](CN)[C@H](c4ccc(C#Cc5ccccc5)cc4)[C@@H]3C2)cc1 [BRD1095] | 0.001 | 0.00119 | – | 0.00166 | 0.003
11 | CCCN(CCC)CC(O)COc1ccccc1C(=O)Nc1ccccc1 (centres unmarked) [MMV006455] | 0.258 | 0.309 | 106 | 0.083 | 0.674
12 | COCCNCC(O)Cn1c2ccc(Cl)cc2c2cc(Cl)ccc21 (centres unmarked) [MMV019017] | 0.456 | 0.636 | 138 | 0.336 | 1.24
